The supplement of paper PMC10307832

Tests used:
Test in all cases: relative viability (nuclei count vs DMSO), 5 days (fraction); higher = more cells survive
[1] = compound: COC1=CC=C(C=C1)COC2=C(C=C(C=C2)CC3=CN=C(N=C3N)N)OC [GW-2580] + CC(=O)Nc1cccc(-n2c(=O)n(C3CC3)c(=O)c3c(Nc4ccc(I)cc4F)n(C)c(=O)c(C)c32)c1 [Trametinib] (partner 0.02 µM)
Procedure, shortened: (§1)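 Lung cancer cell lines were pin-tool dosed in 1536-well plates on the day after seeding, with either a lone drug or a fixed anchor-drug dose plus five library-drug doses (not always all listed) in √10 steps. Nuclei were counted on 4× images after 5 days. Relative viability is the ratio of treated-well to vehicle-well nuclei counts, with each value a median of duplicate plates.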

[2] = compound: COC1=CC=C(C=C1)COC2=C(C=C(C=C2)CC3=CN=C(N=C3N)N)OC [GW-2580] + CS(=O)(=O)N1CCN(Cc2cc3nc(-c4cccc5[nH]ncc45)nc(N4CCOCC4)c3s2)CC1 [Pictilisib] (partner 1 µM)
Procedure, shortened: as §1

[3] = compound: COC1=CC=C(C=C1)COC2=C(C=C(C=C2)CC3=CN=C(N=C3N)N)OC [GW-2580] + Nc1ncn([C@H]2C[C@H](O)[C@@H](CO)O2)c(=O)n1 [Decitabine] (partner 2 µM)
Procedure, shortened: as §1

[4] = compound: Cc1cnc(Nc2ccc(OCCN3CCCC3)cc2)nc1Nc1cccc(S(=O)(=O)NC(C)(C)C)c1 [Fedratinib] + CC1(C)CCC(c2ccc(Cl)cc2)=C(CN2CCN(c3ccc(C(=O)NS(=O)(=O)c4ccc(N[C@H](CCN5CCOCC5)CSc5ccccc5)c(S(=O)(=O)C(F)(F)F)c4)cc3)CC2)C1 [Navitoclax] (partner 0.5 µM)
Procedure, shortened: as §1

[5] = compound: Cc1cnc(Nc2ccc(OCCN3CCCC3)cc2)nc1Nc1cccc(S(=O)(=O)NC(C)(C)C)c1 [Fedratinib] + Cc1nc(Nc2ncc(C(=O)Nc3c(C)cccc3Cl)s2)cc(N2CCN(CCO)CC2)n1 [Dasatinib] (partner 0.075 µM)
Procedure, shortened: as §1

Cell Line | relative viability ([1]; first compound 0.08 µM) | relative viability ([1]; first compound 0.8 µM) | relative viability ([1]; first compound 2.53 µM) | relative viability ([1]; first compound 8 µM) | relative viability ([2]; first compound 0.08 µM) | relative viability ([2]; first compound 0.8 µM) | relative viability ([2]; first compound 2.53 µM) | relative viability ([2]; first compound 8 µM) | relative viability ([3]; first compound 0.08 µM) | relative viability ([3]; first compound 0.8 µM) | relative viability ([3]; first compound 2.53 µM) | relative viability ([3]; first compound 8 µM) | relative viability ([4]; first compound 0.1 µM) | relative viability ([4]; first compound 0.3162 µM) | relative viability ([4]; first compound 1 µM) | relative viability ([5]; first compound 0.1 µM) | relative viability ([5]; first compound 0.3162 µM) | relative viability ([5]; first compound 1 µM)
NCI-H838 | 0.576 | 0.514 | 0.411 | 0.632 | 0.569 | 0.462 | 0.326 | 0.614 | 0.438 | 0.466 | 0.435 | 0.426 | 1.11 | 1.17 | 1.06 | 0.281 | 0.29 | 0.239
HARA | 0.753 | 0.714 | 0.59 | 0.274 | 0.459 | 0.513 | 0.344 | 0.405 | 0.658 | 0.617 | 0.599 | 0.409 | 1.17 | 1.12 | 1.15 | 0.217 | 0.155 | 0.24
NCI-H1648 | 0.416 |  | 0.405 | 0.439 |  |  |  |  | 0.531 |  | 0.464 | 0.552 |  |  |  |  |  | 
NCI-H650 | 0.945 | 1.06 | 0.953 | 0.907 | 0.786 | 0.979 | 0.71 | 0.78 | 0.337 | 0.315 | 0.292 | 0.328 |  |  |  | 0.378 | 0.434 | 0.394
HCC-44 | 1.04 | 1.06 | 0.986 | 0.959 | 0.688 | 0.717 | 0.582 | 0.619 | 0.97 | 0.912 | 0.974 | 1.08 | 0.914 | 0.874 | 1.04 |  |  | 
A549 |  |  |  |  | 0.575 | 0.491 | 0.486 | 0.303 |  | 0.264 | 0.21 | 0.288 | 1.55 | 1.2 | 1.1 |  |  | 
